Legend:
[1] = tested on: Subjects Having Insomnia Disorder; test: Example 1: treatment-emergent adverse events; assay type: in vivo, human; conditions: for TEAEs: Safety Analysis Set
Description: (§1) Subjects were randomized in a double-blind manner and received either placebo, 5 mg of lemborexant, or 10 mg of lemborexant (approximately 1:1:1 randomization). All subjects underwent routine safety monitoring through the study, including assessments of treatment-emergent adverse events, 12-lead electrocardiograms, vital signs, weight, and clinical hematology and blood chemistry labs. Suicidality was assessed using the eC-SSRS.
Safety endpoints for this study included the safety and tolerability of lemborexant (1) compared to placebo (during treatment period 1) and (2) in subjects exposed to lemborexant for 3, 6, 9, and 12 months.

[2] = tested on: Subjects Having Insomnia Disorder; test: Example 1: subjective total sleep time (sTST), Sleep Diary; assay type: in vivo, human
From the text: As used herein, the term “subjective total sleep time”, abbreviated as “sTST”, means the derived minutes of sleep from sleep onset until the time the subject stopped trying to sleep for the night. In some embodiments, sTST is derived from data entered in a subject's Sleep Diary.
In some embodiments, sleep diaries were used to assess sleep parameters reported by subjects (i.e., subjective assessments) including subjective sleep onset latency (sSOL), subjective sleep efficiency (sSE), subjective WASO (sWASO), and subjective total sleep time (sTST). Subjects were instructed to complete the Sleep Diary developed based on the consensus Sleep Diary as described in Carney et al., “The consensus sleep diary: standardizing prospective sleep self-monitoring,” Sleep 2012; 35(2):287-302. In some embodiments, the Sleep Diary was used to assess the subject's global perception of quality of sleep on the previous night with the following question: “How would you rate the quality of your sleep last night?” Subjects rated the quality of their sleep on a scale from 1 to 9, with 1 being extremely poor and 9 being extremely good. In some embodiments, the Sleep Diary was used to assess subjective ratings of morning sleepiness with the following question: “How alert/sleepy do you feel this morning?” Subjects rated their sleepiness/alertness level on a Likert scale from 1 to 9, with 1 being extremely sleepy and 9 being extremely alert.
sTST—subjective total sleep time: derived minutes of sleep from sleep onset until the time the subject stopped trying to sleep for the night.
as §1
Treatment period 1 began with the first dose of randomized study medication (placebo, 5 mg of lemborexant, or 10 mg of lemborexant). Subjects completed sleep diaries daily in the morning, within one hour of waketime. The subjects were assessed by a clinician one month, two months, three months, and six months after initiation of Treatment period 1. The following assessments were conducted:
In addition to the aforementioned study endpoints, the study included several additional secondary endpoints: • Mean change from study baseline of subjective sleep onset latency, subjective sleep efficiency, subjective wake after sleep onset, and subjective total sleep time at the beginning of treatment (mean of the 7 nights after the first dose in Period 1), at Month 1 and at Month 3. • Mean change from study baseline of subjective total sleep time at Month 6. • Change from study baseline in daytime functioning, assessed as the total score from the 4 items on daytime functioning, on the Insomnia Severity Index, at Months 1, 3, and 6.

Cc1ncc(OC[C@@]2(c3cccc(F)c3)C[C@H]2C(=O)Nc2ccc(F)cn2)c(C)n1 [Lemborexant, (1R,2S)-2-(((2,4-dimethylpyrimidin-5-yl)oxy)methyl)-2-(3-fluorophenyl)-N-(5-fluoropyridin-2-yl)cyclopropanecarboxamide]
Deaths ([1]; 5 mg (N = 314)): 0 n (%) | Other SAEs ([1]; 5 mg (N = 314)): 7 (2.2) n (%) | SAEs: Congenital anomaly/birth defect ([1]; 5 mg (N = 314)): 0 n (%) | SAEs: Important medical events ([1]; 5 mg (N = 314)): 1 (0.3) n (%) | SAEs: Life threatening ([1]; 5 mg (N = 314)): 0 n (%) | SAEs: Persistent or significant disability or incapacity ([1]; 5 mg (N = 314)): 0 n (%) | SAEs: Requires inpatient hospitalization or prolongation of existing hospitalization ([1]; 5 mg (N = 314)): 6 (1.9) n (%) | Serious TEAEs ([1]; 5 mg (N = 314)): 7 (2.2) n (%) | Severe TEAEs ([1]; 5 mg (N = 314)): 13 (4.1) n (%) | TEAEs leading to study dose reduced ([1]; 5 mg (N = 314)): 0 n (%) | TEAEs leading to study drug dose adjustment ([1]; 5 mg (N = 314)): 25 (8.0) n (%) | TEAEs leading to study drug interrupted ([1]; 5 mg (N = 314)): 13 (4.1) n (%) | TEAEs leading to study drug withdrawal ([1]; 5 mg (N = 314)): 13 (4.1) n (%) | Treatment-related TEAEs ([1]; 5 mg (N = 314)): 78 (24.8) n (%) | TEAEs ([1]; 5 mg (N = 314)): 192 (61.1) n (%) | Deaths ([1]; 10 mg (N = 314)): 0 n (%) | Other SAEs ([1]; 10 mg (N = 314)): 9 (2.9) n (%) | SAEs: Congenital anomaly/birth defect ([1]; 10 mg (N = 314)): 0 n (%) | SAEs: Important medical events ([1]; 10 mg (N = 314)): 0 n (%) | SAEs: Life threatening ([1]; 10 mg (N = 314)): 0 n (%) | SAEs: Persistent or significant disability or incapacity ([1]; 10 mg (N = 314)): 0 n (%) | SAEs: Requires inpatient hospitalization or prolongation of existing hospitalization ([1]; 10 mg (N = 314)): 9 (2.9) n (%) | Serious TEAEs ([1]; 10 mg (N = 314)): 9 (2.9) n (%) | Severe TEAEs ([1]; 10 mg (N = 314)): 8 (2.5) n (%) | TEAEs leading to study dose reduced ([1]; 10 mg (N = 314)): 0 n (%) | TEAEs leading to study drug dose adjustment ([1]; 10 mg (N = 314)): 33 (10.5) n (%) | TEAEs leading to study drug interrupted ([1]; 10 mg (N = 314)): 8 (2.5) n (%) | TEAEs leading to study drug withdrawal ([1]; 10 mg (N = 314)): 26 (8.3) n (%) | Treatment-related TEAEs ([1]; 10 mg (N = 314)): 91 (29.0) n (%) | TEAEs ([1]; 10 mg (N = 314)): 187 (59.6) n (%) | safety and tolerability (incidence of adverse events) ([1]; Example 1 (Table 11)): safe and well-tolerated | subjective total sleep time compared with placebo ([2]; 5 mg and 10 mg, at the equivalent timepoint (Table 5)): greater increase in subjective total sleep time than subjects treated with placebo | sTST, Mean ([2]; 5 mg, First 7 Nights): 350.80 min | sTST, Median ([2]; 5 mg, First 7 Nights): 366.0 min | sTST, Mean ([2]; 5 mg, Month 1): 357.14 min | sTST, Median ([2]; 5 mg, Month 1): 374.64 min | sTST, Mean ([2]; 5 mg, Month 3): 386.42 min | sTST, Median ([2]; 5 mg, Month 3): 397.86 min | sTST, Mean ([2]; 5 mg, Month 6): 392.08 min | sTST, Median ([2]; 5 mg, Month 6): 403.43 min | sTST, Mean ([2]; 5 mg, Study Baseline): 315.52 min | sTST, Median ([2]; 5 mg, Study Baseline): 332.14 min | sTST Change from Study Baseline, Mean ([2]; 5 mg, after 1 Month): 39.32 min | sTST Change from Study Baseline, Median ([2]; 5 mg, after 1 Month): 36.33 min | sTST Change from Study Baseline, Mean ([2]; 5 mg, after 3 Months): 65.82 min | sTST Change from Study Baseline, Median ([2]; 5 mg, after 3 Months): 60.71 min | sTST Change from Study Baseline, Mean ([2]; 5 mg, after 6 Months): 76.21 min | sTST Change from Study Baseline, Median ([2]; 5 mg, after 6 Months): 70.71 min | sTST Change from Study Baseline, Mean ([2]; 5 mg, after 7 Nights): 34.29 min | sTST Change from Study Baseline, Median ([2]; 5 mg, after 7 Nights): 30.71 min | sTST LSM treatment difference: Lemborexant/Placebo ([2]; 5 mg, change from Study Baseline after 1 Month): 11.760 min | sTST LSM treatment difference: Lemborexant/Placebo ([2]; 5 mg, change from Study Baseline after 3 Months): 17.374 min | sTST LSM treatment difference: Lemborexant/Placebo ([2]; 5 mg, change from Study Baseline after 6 Months): 18.555 min | sTST LSM treatment difference: Lemborexant/Placebo ([2]; 5 mg, change from Study Baseline after 7 Nights): 22.034 min | sTST, Mean ([2]; 10 mg, First 7 Nights): 351.43 min | sTST, Median ([2]; 10 mg, First 7 Nights): 365.11 min | sTST, Mean ([2]; 10 mg, Month 1): 355.96 min | sTST, Median ([2]; 10 mg, Month 1): 369.23 min | sTST, Mean ([2]; 10 mg, Month 3): 374.99 min | sTST, Median ([2]; 10 mg, Month 3): 391.43 min | sTST, Mean ([2]; 10 mg, Month 6): 379.25 min | sTST, Median ([2]; 10 mg, Month 6): 398.57 min | sTST, Mean ([2]; 10 mg, Study Baseline): 306.89 min | sTST, Median ([2]; 10 mg, Study Baseline): 315.33 min | sTST Change from Study Baseline, Mean ([2]; 10 mg, after 1 Month): 53.22 min | sTST Change from Study Baseline, Median ([2]; 10 mg, after 1 Month): 47.77 min | sTST Change from Study Baseline, Mean ([2]; 10 mg, after 3 Months): 70.95 min | sTST Change from Study Baseline, Median ([2]; 10 mg, after 3 Months): 64.52 min | sTST Change from Study Baseline, Mean ([2]; 10 mg, after 6 Months): 78.32 min | sTST Change from Study Baseline, Median ([2]; 10 mg, after 6 Months): 72.93 min | sTST Change from Study Baseline, Mean ([2]; 10 mg, after 7 Nights): 46.01 min | sTST Change from Study Baseline, Median ([2]; 10 mg, after 7 Nights): 42.31 min | sTST LSM treatment difference: Lemborexant/Placebo ([2]; 10 mg, change from Study Baseline after 1 Month): 22.131 min | sTST LSM treatment difference: Lemborexant/Placebo ([2]; 10 mg, change from Study Baseline after 3 Months): 21.686 min | sTST LSM treatment difference: Lemborexant/Placebo ([2]; 10 mg, change from Study Baseline after 6 Months): 22.686 min | sTST LSM treatment difference: Lemborexant/Placebo ([2]; 10 mg, change from Study Baseline after 7 Nights): 31.796 min

— patent US20220305012A1, “L[…] TREATING SLEEP ISSUES” (EISAI R&D MANAGEMENT CO., LTD., priority 2019, published 2022)
